Legend:
OATP2B1 [1] = target: T1, OATP2B1 (Homo sapiens, UniProt O94956); conditions: OATP2B1-overexpressing Xenopus laevis oocytes; cited from earlier work
T1 sequence (O94956 1-709): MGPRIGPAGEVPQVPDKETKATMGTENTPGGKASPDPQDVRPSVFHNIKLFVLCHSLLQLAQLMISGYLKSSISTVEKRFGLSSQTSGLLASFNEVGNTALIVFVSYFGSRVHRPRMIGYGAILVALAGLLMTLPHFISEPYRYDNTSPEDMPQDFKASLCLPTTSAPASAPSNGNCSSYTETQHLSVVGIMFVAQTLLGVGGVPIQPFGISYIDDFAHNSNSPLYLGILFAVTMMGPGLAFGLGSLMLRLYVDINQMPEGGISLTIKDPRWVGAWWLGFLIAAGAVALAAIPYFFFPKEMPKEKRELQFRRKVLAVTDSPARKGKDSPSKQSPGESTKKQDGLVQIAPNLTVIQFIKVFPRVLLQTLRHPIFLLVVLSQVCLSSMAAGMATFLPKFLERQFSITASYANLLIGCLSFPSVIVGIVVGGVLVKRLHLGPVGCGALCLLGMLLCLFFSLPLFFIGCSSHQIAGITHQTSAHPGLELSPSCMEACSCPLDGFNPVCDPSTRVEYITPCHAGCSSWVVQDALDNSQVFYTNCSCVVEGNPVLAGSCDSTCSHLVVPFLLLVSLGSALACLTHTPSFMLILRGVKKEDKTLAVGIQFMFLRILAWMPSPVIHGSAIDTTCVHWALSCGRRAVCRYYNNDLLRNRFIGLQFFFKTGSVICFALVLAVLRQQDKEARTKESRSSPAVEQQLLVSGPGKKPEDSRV

OATP2B1 [2] = target: T1, OATP2B1; assay: Inhibition of OATP2B1-mediated estrone 3-sulfate uptake in MDCKII-OATP2B1 cells; type: cell-based; conditions: 0 to 316 μM

COc1ccc([C@@H]2CC(=O)c3c(O)cc(O[C@@H]4O[C@H](CO[C@@H]5O[C@@H](C)[C@H](O)[C@@H](O)[C@H]5O)[C@@H](O)[C@H](O)[C@H]4O)cc3O2)cc1O [Hesperidin, hesperidin]
IC50 (OATP2B1 [1]): 1.92 µM
inhibition at the concentrations tested (OATP2B1 [2]): no inhibition

— PMC5397323 (Biopharmaceutics & drug disposition, 2017)
